{"source": "paper PMC7830118", "about": "“Synthesis and Biological Evaluation of ^99mTc(I) Tricarbonyl Complexes Dual-Targeted at Tumoral Mitochondria” (Molecules, 2021)", "origin": "cited, not measured here", "system": "mitochondria fraction isolated from rat myocardium", "experimental": "The ^99mTc-BBN complex accumulates to a low extent (0.19 to 0.24%) in mitochondria when compared with the TPP-containing complexes. […] The highest mitochondrial uptake (0.84 ± 0.06%) was found for the dual-targeted complex, ^99mTc-TPP-BBN, after 2 h of incubation. The measured uptakes are relative values that were obtained in the same manner and, therefore, reflect the mitotropic properties of each complex. However, it is worthwhile to mention that in these ...", "data": [{"smiles": "[99Tc].[C-]#[N+]CC(C)(C)OC.[C-]#[N+]CC(C)(C)OC.[C-]#[N+]CC(C)(C)OC.[C-]#[N+]CC(C)(C)OC.[C-]#[N+]CC(C)(C)OC.[C-]#[N+]CC(C)(C)OC", "note": "[^99mTc-MIBI]", "values": [{"measurement": "Mitochondrial uptake after correction for mitochondria in other cellular fractions", "setting": "correction with CCCP and malate dehydrogenase activity", "result": 68, "unit": "%"}, {"measurement": "Measured mitochondrial uptake (accumulation in the mitochondria fraction), uncorrected", "setting": "mitochondria fraction isolated from rat myocardium", "result": 2.38, "unit": "%"}]}]}
